According to patent publication US10323061B2, “Heteroaryl containing bile acid analogs as FXR/TGR5 agonists and methods of use thereof” (ENANTA PHARMACEUTICALS, INC., priority 2016, dated 2019):

Biological target: T1, human FXR (NR1H4) (Homo sapiens, UniProt Q96RI1)
T1 construct: host or cells: CHO (Chinese hamster ovary) cells
T1 sequence (Q96RI1 1-486): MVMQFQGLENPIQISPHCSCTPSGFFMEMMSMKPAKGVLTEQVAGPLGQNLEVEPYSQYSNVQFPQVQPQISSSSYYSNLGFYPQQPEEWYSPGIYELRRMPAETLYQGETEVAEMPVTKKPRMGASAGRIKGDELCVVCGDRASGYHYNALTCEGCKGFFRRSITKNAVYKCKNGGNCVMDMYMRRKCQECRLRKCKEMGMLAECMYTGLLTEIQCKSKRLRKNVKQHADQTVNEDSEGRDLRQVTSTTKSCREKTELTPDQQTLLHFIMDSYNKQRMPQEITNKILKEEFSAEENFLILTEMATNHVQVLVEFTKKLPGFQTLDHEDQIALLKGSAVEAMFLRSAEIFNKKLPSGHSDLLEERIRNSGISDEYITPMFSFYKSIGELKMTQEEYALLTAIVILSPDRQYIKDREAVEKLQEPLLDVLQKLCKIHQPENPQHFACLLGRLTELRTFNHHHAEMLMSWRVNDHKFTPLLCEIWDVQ
Test: Human FXR (NR1H4) Assay (Gal4 promoter driven luciferase reporter, Indigo Bioscience kit IB00601)
Assay type: cell-based
Settings: CHO reporter cells expressing human NR1H4; for EC50: FXR agonistic potency range, 22 hours incubation; for Efficacy (%): normalized to CDCA set as 100%
From the text: Assays Human FXR (NR1H4) Assay Determination of a ligand mediated Gal4 promoter driven transactivation to quantify ligand binding mediated activation of FXR. FXR Reporter Assay kit purchased from Indigo Bioscience (Catalogue number: IB00601) to determine the potency and efficacy of compound developed by Enanta that can induce FXR activation. The principal application of this reporter assay system is to quantify functional activity of human FXR. The assay utilizes non-human mammalian cells, CHO (Chinese hamster ovary) cells engineered to express human NR1H4 protein (referred to as FXR). Reporter cells also incorporate the cDNA encoding beetle luciferase which catalyzes the substrates and yields photon emission. Luminescence intensity of the reaction is quantified using a plate-reading luminometer, Envision. Reporter Cells include the luciferase reporter gene functionally linked to an FXR responsive promoter. Thus, quantifying changes in luciferase expression in the treated reporter cells provides a sensitive surrogate measure of the changes in FXR activity. […] The assay is according to the manufacturer's instructions. In brief, the assay was performed in white, 96 well plates using final volume of 100 ul containing cells with different doses of compounds. Retrieve Reporter Cells from −80° C. storage. Perform a rapid thaw of the frozen cells by transferring a 10 ml volume of 37° C. cell recovery medium into the tube of frozen cells. Recap the tube of Reporter Cells and immediately place it in a 37° C. water bath for 5-10 minutes. Retrieve the tube of Reporter Cell Suspension from the water bath. Sanitize the outside surface of the tube with a 70% alcohol swab, and then transfer it into the cell culture hood. Dispense 90 μl of cell suspension into each well of the 96-well Assay Plate. Transfer the plate into 37° C. incubator, allowing the cells adherent to the bottom of the well. Dilute compounds in Dilution Plate (DP), and administrate to cells at Assay Plate (AP). DMSO content of the samples was kept at 0.2%. Cells were incubated for additional 22 hours before luciferase activities were measured. Thirty minutes before intending to quantify FXR activity, remove Detection Substrate and Detection Buffer from the refrigerator and place them in a low-light area so that they may equilibrate to room temperature. Remove the plate's lid and discard all media contents by ejecting it into an appropriate waste container. Gently tap the inverted plate onto a clean absorbent paper towel to remove residual droplets. Cells will remain tightly adhered to well bottoms. Add 100 μl of luciferase detection reagent to each well of the assay plate. Allow the assay plate to rest at room temperature for at least 5 minutes following the addition of LDR. Set the instrument (Envision) to perform a single 5 second “plate shake” prior to reading the first assay well. Read time may be 0.5 second (500 mSec) per well.

SMILES	EC50 [nM]	Efficacy (%)
CC[C@H]1[C@@H](O)[C@@H]2[C@H](CC[C@]3(C)[C@@H]([C@H](C)Cc4nnc(NS(=O)(=O)N(C)C)[nH]4)CC[C@@H]23)[C@@]2(C)CC[C@@H](O)C[C@@H]12 [Example 8]	100 to 1000	234
CC[C@H]1[C@@H](O)[C@@H]2[C@H](CC[C@]3(C)[C@@H]([C@H](C)CCc4nnc(N)o4)CC[C@@H]23)[C@@]2(C)CC[C@@H](O)C[C@@H]12 [Example 9]	100 to 1000	222
CC[C@H]1[C@@H](O)[C@@H]2[C@H](CC[C@]3(C)[C@@H]([C@H](C)CCc4nnc(C5CC5)o4)CC[C@@H]23)[C@@]2(C)CC[C@@H](O)C[C@@H]12 [Example 10]	100 to 1000	304
CC[C@H]1[C@@H](O)[C@@H]2[C@H](CC[C@]3(C)[C@@H]([C@H](C)CCc4nc(C5CC5)no4)CC[C@@H]23)[C@@]2(C)CC[C@@H](O)C[C@@H]12 [Example 11]	1000 to 10000	239
CC[C@H]1[C@@H](O)[C@@H]2[C@H](CC[C@]3(C)[C@@H]([C@H](C)CCc4nnc(C5CC5)s4)CC[C@@H]23)[C@@]2(C)CC[C@@H](O)C[C@@H]12 [Example 12]	100 to 1000	369
CC[C@H]1[C@@H](O)[C@@H]2[C@H](CC[C@]3(C)[C@@H]([C@H](C)CCc4nnc(C5CC5)[nH]4)CC[C@@H]23)[C@@]2(C)CC[C@@H](O)C[C@@H]12 [Example 13]	1000 to 10000	168
CC[C@H]1[C@@H](O)[C@@H]2[C@H](CC[C@]3(C)[C@@H]([C@H](C)CCc4nnc(N(C)C)o4)CC[C@@H]23)[C@@]2(C)CC[C@@H](O)C[C@@H]12 [Example 14]	100 to 1000	265
CC[C@H]1[C@@H](O)[C@@H]2[C@H](CC[C@]3(C)[C@@H]([C@H](C)CCc4nnc(-c5ccccc5)s4)CC[C@@H]23)[C@@]2(C)CC[C@@H](O)C[C@@H]12 [Example 15]	100 to 1000	362
CC[C@H]1[C@@H](O)[C@@H]2[C@H](CC[C@]3(C)[C@@H]([C@H](C)CCc4nnc(Cc5ccccc5)s4)CC[C@@H]23)[C@@]2(C)CC[C@@H](O)C[C@@H]12 [Example 16]	100 to 1000	378
CC[C@H]1[C@@H](O)[C@@H]2[C@H](CC[C@]3(C)[C@@H]([C@H](C)CCc4nnc(C(C)(C)C)s4)CC[C@@H]23)[C@@]2(C)CC[C@@H](O)C[C@@H]12 [Example 17]	100 to 1000	314
CC[C@H]1[C@@H](O)[C@@H]2[C@H](CC[C@]3(C)[C@@H]([C@H](C)CCc4nnc(C5CCCCC5)s4)CC[C@@H]23)[C@@]2(C)CC[C@@H](O)C[C@@H]12 [Example 18]	1000 to 10000	244
CC[C@H]1[C@@H](O)[C@@H]2[C@H](CC[C@]3(C)[C@@H]([C@H](C)CCc4nnc(-c5ccc(C(C)(C)C)cc5)s4)CC[C@@H]23)[C@@]2(C)CC[C@@H](O)C[C@@H]12 [Example 19]	1000 to 10000	172
CC[C@H]1[C@@H](O)[C@@H]2[C@H](CC[C@]3(C)[C@@H]([C@H](C)Cc4nnc(-c5ccc(C(C)(C)C)cc5)o4)CC[C@@H]23)[C@@]2(C)CC[C@@H](O)C[C@@H]12 [Example 20]	1000 to 10000	87
